For two compounds, EC50 results are on record in article PMC7203735, “Characterization of an A-Type Muscarinic Acetylcholine Receptor and Its Possible Non-neuronal Role in the Oriental Armyworm, Mythimna separata Walker (Lepidoptera: Noctuidae)” (Frontiers in Physiology, 2020).

Where two headings read alike, the source gives them in different places.

This assay deals with T1, Ms A-type mAChR (Ms A-mAChR) (Mythimna separata, UniProt A0A2D1QUJ3).
T1 sequence (A0A2D1QUJ3 1-601): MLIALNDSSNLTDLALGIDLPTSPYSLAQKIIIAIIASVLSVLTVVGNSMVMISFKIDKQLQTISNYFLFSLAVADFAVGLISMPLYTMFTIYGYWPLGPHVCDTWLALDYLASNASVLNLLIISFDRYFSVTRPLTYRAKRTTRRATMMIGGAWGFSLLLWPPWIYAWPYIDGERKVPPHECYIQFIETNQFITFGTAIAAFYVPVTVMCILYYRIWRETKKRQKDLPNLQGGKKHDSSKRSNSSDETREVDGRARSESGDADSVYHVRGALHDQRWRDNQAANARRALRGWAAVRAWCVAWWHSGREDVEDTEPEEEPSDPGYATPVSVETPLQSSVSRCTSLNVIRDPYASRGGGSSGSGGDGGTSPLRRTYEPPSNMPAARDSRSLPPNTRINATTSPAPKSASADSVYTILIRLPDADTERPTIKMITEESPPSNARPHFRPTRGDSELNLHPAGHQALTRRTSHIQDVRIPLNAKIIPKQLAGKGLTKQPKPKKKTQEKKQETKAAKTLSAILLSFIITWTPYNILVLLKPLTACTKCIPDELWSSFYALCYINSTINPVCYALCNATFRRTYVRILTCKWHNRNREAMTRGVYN
The assay can be described thus: FLIPR calcium mobilization in transfected HEK […] cells. The class given is cell-based.

For `C[N+](C)(C)CCOC(N)=O` [carbachol], the EC50 (read-out: EC50) came out at 125 nM.
As to `C[C@@H]1O[C@H](C[N+](C)(C)C)C[C@H]1O` [muscarine], the EC50 came out at 388 nM.

One may read the EC50 as the midpoint of the concentration-response curve.
